Source: EP4768482A1, “THIOBENZIMIDAZOLE DERIVATIVE OR PHARMACEUTICALLY ACCEPTABLE SALT THEREOF, AND USE THEREOF” (Korea University Research and Business Foundation, priority 2023, dated 2025)

Tested on: MDA-MB-231
Assay: MTS cell viability assay, MDA-MB-231 breast cancer cell line
Format: cell-based
Conditions: Homo sapiens, MDA-MB-231 cell line, 0-10 µM, 72 hours
Protocol: MDA-MB-231 (Cell seeding numbers: 0.8(M231) x 10^4 cells/wells (confluency ≧ 25%), which is a human triple-negative breast cancer (TNBC) cell line, and JIMT-1 (Cell seeding numbers: 0.8(JIMT) x 10^4 cells/wells (confluency ≧ 25%)), which is a HER2 positive breast cancer (HER2+ BC) cell line, were used in the experiment.
The above cell lines were cultured in an environment of 5% CO2 and 37°C in a Dulbecco's modified Eagle's medium (DMEM) including a 10% fetal bovine serum (FBS), a streptomycin-penicillin (100 U/mL), and a Fungizone (0.625 µg/mL), respectively.
The human breast cancer cell lines MDA-MB-231 and JIMT-1 were treated with thiobenzimidazole derivatives of Formulas 1-1 to 1-10 at concentrations of 0, 0.5, 1, and 5 µM, respectively, for 72 hours, and then cell viability was measured using the MTS assay technique. In the MTS assay, cells were attached to a 96-well plate for 24 hours, treated with the thiobenzimidazole derivative for 72 hours, developed with MTS (3-(4,5-dimethylthiazol-2-yl)-5-(3-carboxymethoxyphenyl)-2-(4-sulfophenyl)-2H-tetrazolium) for 4 hours, and then absorbance was measured at 490 nm using a Spectramax Plus384 microplate analyzer. The results are illustrated in FIG. 1, and as illustrated in the drawing, it was confirmed that the thiobenzimidazole derivatives of Formula 1-1 to 1-10 inhibited cell viability in a concentration-dependent manner in the human breast cancer cell lines MDA-MB-231 and JIMT-1.
The MDA-MB-231 and JIMT-1 cell lines were treated with thiobenzimidazole derivatives (Formula 1-1 to 1-4) of the disclosure at concentrations of 0, 0.01, 0.05, 0.1, 0.25, 0.5, 1, 5, and 10 µM, respectively, and then cell viability and IC50 values therefrom were confirmed. The preparation method of the cell lines and the experimental method were the same as those performed in Example 1.

SMILES: COC(=O)Nc1nc2cc(Sc3ccc(N4CCC(N5CCOCC5)CC4)cc3)ccc2[nH]1 [Formula 1-1, Methyl (5-((4-(4-morpholinopiperidin-1-yl)phenyl)thio)-1H-benzo[d]imidazol-2-yl)carbamate]
- IC50: 592 nM

SMILES: COC(=O)Nc1nc2cc(Sc3ccc(N4CCOCC4)c(F)c3)ccc2[nH]1 [Formula 1-2, Methyl (5-((3-fluoro-4-morpholinophenyl)thio)-1H-benzo[d]imidazol-2-yl)carbamate]
- IC50: 174 nM

SMILES: COC(=O)Nc1nc2cc(Sc3ccc(N4CCN(C)CC4)c(F)c3)ccc2[nH]1 [Formula 1-3, Methyl (5-((3-fluoro-4-(4-methylpiperazin-1-yl)phenyl)thio)-1H-benzo[d]imidazol-2-yl)carbamate]
- IC50: 583 nM

SMILES: COC(=O)Nc1nc2cc(Sc3ccc(N4CCC(O)CC4)nc3)ccc2[nH]1 [Formula 1-4, Methyl (5-((6-(4-hydroxypiperidin-1-yl)pyridin-3-yl)thio)-1H-benzo[d]imidazol-2-yl)carbamate]
- IC50: 135 nM
